The values that follow come from patent publication US9029574B2, “Bicyclic compound and use thereof for medical purposes” (Ono Pharmaceutical Co., Ltd., priority 2011, dated 2015).

What all share (assay type): in vivo
One data set has as its system male dog (TOYO Beagle). The experiment in a line: Intraocular pressure lowering action in dog after ocular instillation. The note with it: for Maximum of intraocular pressure lowering rate (%): ocular instillation 30 μL, maximum among 2, 4, 6, 8 and 24 hours; for intraocular pressure lowering action as compared with latanoprost: ocular instillation, in words. As to the method:
As can be easily understood by a person skilled in the art, in an in vivo test, since regarding all test compounds, carboxylic acid which is an active body has bad corneal permeability, pharmacological action of the active body was assessed by ocular instillation administration of a compound which had been converted into an ester such as a methyl ester, an ethyl ester, an isopropyl ester etc. In addition, in a group of the compound of the present inventions, by ocular instillation administration of the ester body in an experimental animal (rabbit, dog etc.) by which pharmacological action is confirmed below and, thereafter, measurement of a drug concentration of carboxylic acid in an aqueous humor, it was confirmed that the ester is rapidly converted into corresponding carboxylic acid.
(2-1) Intraocular Pressure Lowering Action
To one eye of a male dog (TOYO Beagle) which had been sufficiently acclimated in advance, 30 μL of each test compound (the compound of Example 16 (35), the compound of Example 16 (3) and the compound of Example 16 (25)) which had been adjusted with a base (containing citrate buffer pH 6.5, 0.5% polysorbate 80, 1% propylene glycol, […]), was ocular-instilled respectively. The other eye was not treated. As a positive control compound, latanoprost which is the known compound was used.
Thereafter, an ocular surface anesthetic (Benoxil eye drops 0.4%, Santen Pharmaceutical Co., Ltd.) was subjected to ocular instillation to locally anesthetize eyes, and an intraocular pressure of each test compound before ocular instillation and after 2, 4, 6, 8, and 24 hours from ocular instillation was measured. An intraocular pressure was measured using a pneumatic applanation flat tonometer (Model 30 Classic, REICHERT). An intraocular pressure lowering rate (%) was calculated by the following equation.

Data set [1] has as its system male rabbit (NewZealandWhite). Description: Aqueous humor protein concentration in rabbit after ocular instillation. Conditions: ocular instillation 30 μL of 0.1% (w/v), aqueous humor collected 0 to 8 hours. As to the method:
(2-2) Assessment of Ocular Stimulating Property and Aqueous Humor Protein Concentration
To one eye of a male rabbit (NewZealandWhite, 2.0 to 3.0 kg), 30 μL of the compound of Example 16 (35), the compound of Example 16 (3) and the compound of Example 16 (25) which had been adjusted to 0.1% (w/v) with a base (containing citrate buffer pH 6.5, 0.5% polysorbate 80, 1% propylene glycol, 0.01% benzalkonium chloride), was ocular-instilled respectively. Thereafter, an aqueous humor in anterior chamber after 0, 1, 2, 4, 6 and 8 hours from ocular instillation was collected, and a protein concentration in the humor was measured. As a comparative compound, the aforementioned methyl ester of the compound of Example 12 described in Patent Literature 2 (i.e. compound of Example 10 described in Patent Literature 2) (hereinafter, abbreviated as Comparative Compound B in some cases) was used.
Regarding any test compound, a dose until a dissolution limit (150 to 1000 μg/mL) was administered and action of each active body was assessed.

For data set [2], the system named is male monkey (crab-eating monkey). Description: Intraocular pressure lowering action in monkey under consciousness. The note with it: ocular instillation 30 μL, 10 μg/mL; for Maximum intraocular pressure lowering rate (%): maximum up to 24 hours. As to the method: (2-3) Intraocular Pressure Lowering Action in Monkey Under Consciousness
To a left eye of a male monkey (crab-eating monkey) under consciousness, 30 μL of a solution obtained by adjusting a test substance with using the same base as that described above was ocular instillation-administered and, to a right eye, 30 μL of a solution of only a base as a control was ocular instillation-administered, respectively. An intraocular pressure after administration was measured with time from administration initiation until 24 hours. In case of measurement of an intraocular pressure, a crab-eating monkey was fixed on a monkey chair, and the monkey was anesthetized by ocular instillation-administering an ocular surface anesthetic (Benoxil eye drops 0.4% Santen Pharmaceutical Co., Ltd.). After mounting of a blepharostat (Handaya Co., Ltd.), an intraocular pressure of both eyes was measured (5 to 8 examples per group) with using a pneumatic applanation flat tonometer (Model 30 Classic, REICHERT). A difference in an intraocular pressure value between control eyes and eyes to which a test substance had been administered, was calculated as an intraocular pressure lowering rate with using the following equation, and sustainability of intraocular eye lowering action was assessed using a maximum intraocular pressure lowering rate during measurement and an intraocular pressure lowering rate after 24 hours. As the test substance, the Comparative Compound B, and the compounds of Example 16 (3), Example 16 (25) and Example 16 (35) were used, and an administration dose was 10 μg/mL in all cases.

Regarding `CC(C)OC(=O)CCC[C@H]1CC[C@@H]2[C@@H](/C=C/[C@@H](O)COc3cccc(Cl)c3)[C@H](O)C[C@@H]2OC1` [Example 16 (3), 2-Propanyl 4-{(3S,5aR,6R,7R,8aS)-6-[(1E,3R)-4-(3-chlorophenoxy)-3-hydroxy-1-buten-1-yl]-7-hydroxyoctahydro-2H-cyclopenta[b]oxepin-3-yl}butanoate], the “Maximum of intraocular pressure lowering rate (%)” value with male dog (TOYO Beagle) (administration dose 10 μg/mL) is reported as 35.7%. Also, the “intraocular pressure lowering action as compared with latanoprost” value in the data set with male dog (TOYO Beagle) is “stronger intraocular pressure lowering action”. Besides, the “action of raising a protein concentration in an aqueous humor” value (“action … in an aqueous humor” below) in data set [1] is on record as “no action of raising a protein concentration in an aqueous humor”. Besides, in data set [2], the “Intraocular pressure lowering rate (%) after 24 hours” value turned out to be 15.1 ± 2.0% and the “Maximum intraocular pressure lowering rate (%)” value is listed as 28.8 ± 2.2%.

In the case of `CC(C)OC(=O)CCC[C@H]1CC[C@@H]2[C@@H](/C=C/[C@@H](O)COc3cc(F)ccc3F)[C@H](O)C[C@@H]2OC1` [Example 16 (25), 2-Propanyl 4-{(3S,5aR,6R,7R,8aS)-6-[(1E,3R)-4-(2,5-difluorophenoxy)-3-hydroxy-1-buten-1-yl]-7-hydroxyoctahydro-2H-cyclopenta[b]oxepin-3-yl}butanoate], in the data set with male dog (TOYO Beagle) (administration dose 10 μg/mL), the “Maximum of intraocular pressure lowering rate (%)” value came out at 40.6%. In the data set with male dog (TOYO Beagle), the “intraocular pressure lowering action as compared with latanoprost” value is “stronger intraocular pressure lowering action”. Moreover, the “action … in an aqueous humor” value in data set [1] was “no action of raising a protein concentration in an aqueous humor”. Moreover, in data set [2], the “Intraocular pressure lowering rate (%) after 24 hours” value came out at 17.5 ± 2.1% and the “Maximum intraocular pressure lowering rate (%)” value stood at 26.5 ± 1.7%.

As for `CCOC(=O)CCC[C@H]1CC[C@@H]2[C@@H](/C=C/[C@@H](O)COc3ccccc3)[C@H](O)C[C@@H]2OC1` [Example 16 (35), Ethyl 4-{(3S,5aR,6R,7R,8aS)-7-hydroxy-6-[(1E,3R)-3-hydroxy-4-phenoxy-1-buten-1-yl]octahydro-2H-cyclopenta[b]oxepin-3-yl}butanoate], in the data set on male dog (TOYO Beagle) (administration dose 10 μg/mL), the “Maximum of intraocular pressure lowering rate (%)” value was found to be 31%. Also, the “intraocular pressure lowering action as compared with latanoprost” value in the data set on male dog (TOYO Beagle) is listed as “stronger intraocular pressure lowering action”. The “action … in an aqueous humor” value in data set [1] is “no action of raising a protein concentration in an aqueous humor”. In data set [2], the “Intraocular pressure lowering rate (%) after 24 hours” value was determined as 14.9 ± 4.7% and the “Maximum intraocular pressure lowering rate (%)” value was 19.2 ± 2.6%.

As to `CC(C)OC(=O)CCC/C=C\C[C@@H]1[C@@H](CC[C@@H](O)CCc2ccccc2)[C@H](O)C[C@@H]1O` [Latanoprost, latanoprost, reference compound], in the data set on male dog (TOYO Beagle) (administration dose 50 μg/mL), the “Maximum of intraocular pressure lowering rate (%)” value turned out to be 25.4%.
